Results from PubChem BioAssay AID1963838 (Molecular Pharmacology Branch, DTP, NCI, 2024).

System: 855422-203-R-J1-PDC complex spheroid viability
Test: Anticancer human tumor 855422-203-R-J1-PDC patient-derived bladder carcinoma cell line growth inhibition [POLQ]
Conditions: for IC50: curve of first compound; for viability, T/C: stronger effect = lower value
Procedure, shortened: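 Patient-derived tumour cells were co-cultured with HUVEC and mesenchymal stem cells as multicellular spheroids at 37 °C. They were treated with POLQ inhibitors (novobiocin, ART-558, RP6685) alone or combined with other agents. Top concentrations were at or near clinical Cmax (otherwise 10 microM; SN-38 at 1 microM), decreasing in half-log steps.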

[1] = second compound 0.0316 µM, first compound 0.00316 µM
[2] = second compound 0.0316 µM, first compound 0.01 µM
[3] = second compound 0.0316 µM, first compound 0.0316 µM
[4] = second compound 0.0316 µM, first compound 0.1 µM
[5] = second compound 0.1 µM, first compound 0.00316 µM
[6] = second compound 0.1 µM, first compound 0.01 µM
[7] = second compound 0.1 µM, first compound 0.0316 µM
[8] = second compound 0.1 µM, first compound 0.1 µM
[9] = second compound 0.316 µM, first compound 0.00316 µM
[10] = second compound 0.316 µM, first compound 0.01 µM
[11] = second compound 0.316 µM, first compound 0.0316 µM
[12] = second compound 0.316 µM, first compound 0.1 µM
[13] = second compound 1 µM, first compound 0.00316 µM
[14] = second compound 1 µM, first compound 0.01 µM
[15] = second compound 1 µM, first compound 0.0316 µM
[16] = second compound 1 µM, first compound 0.1 µM
[17] = second compound 3.16 µM, first compound 0.00316 µM
[18] = second compound 3.16 µM, first compound 0.01 µM
[19] = second compound 3.16 µM, first compound 0.0316 µM
[20] = second compound 3.16 µM, first compound 0.1 µM
[21] = second compound 10 µM, first compound 0.00316 µM
[22] = second compound 10 µM, first compound 0.01 µM
[23] = second compound 10 µM, first compound 0.0316 µM
[24] = second compound 10 µM, first compound 0.1 µM
[25] = second compound 0.0316 µM, first compound 0.316 µM
[26] = second compound 0.0316 µM, first compound 1 µM
[27] = second compound 0.1 µM, first compound 0.316 µM
[28] = second compound 0.1 µM, first compound 1 µM
[29] = second compound 0.316 µM, first compound 0.316 µM
[30] = second compound 0.316 µM, first compound 1 µM
[31] = second compound 1 µM, first compound 0.316 µM
[32] = second compound 1 µM, first compound 1 µM
[33] = second compound 3.16 µM, first compound 0.316 µM
[34] = second compound 3.16 µM, first compound 1 µM
[35] = second compound 10 µM, first compound 0.316 µM
[36] = second compound 10 µM, first compound 1 µM
[37] = second compound 0.0316 µM, first compound 3.16 µM
[38] = second compound 0.0316 µM, first compound 10 µM
[39] = second compound 0.1 µM, first compound 3.16 µM
[40] = second compound 0.1 µM, first compound 10 µM
[41] = second compound 0.316 µM, first compound 3.16 µM
[42] = second compound 0.316 µM, first compound 10 µM
[43] = second compound 1 µM, first compound 3.16 µM
[44] = second compound 1 µM, first compound 10 µM
[45] = second compound 3.16 µM, first compound 3.16 µM
[46] = second compound 3.16 µM, first compound 10 µM
[47] = second compound 10 µM, first compound 3.16 µM
[48] = second compound 10 µM, first compound 10 µM
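Note: spheroids exposed to compounds for seven days before readout.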

CC[C@@]1(O)C(=O)OCc2c1cc1n(c2=O)Cc2cc3c(CN(C)C)c(O)ccc3nc2-1 + Nc1ccc(C#CCN(C(=O)Cc2ncc(C(F)(F)F)cc2C(F)(F)F)c2ccc(F)cc2)nn1 was tested, and the IC50 (second compound 0.0316 µM) was 57.2 nM, the IC50 (second compound 0.1 µM) was 66.7 nM and the IC50 (second compound 0.316 µM) was 62 nM. It also gave an IC50 (second compound 1 µM) of 59.7 nM, an IC50 (second compound 3.16 µM) of 66.4 nM and an IC50 (second compound 10 µM) of 64 nM. For the same molecule, the viability, T/C (second compound 0.0316 µM, first compound 0.000316 µM) was 89.5%, the viability, T/C (second compound 0.0316 µM, first compound 0.001 µM) was 111% and the viability, T/C [1] was 101%. For the same molecule, the viability, T/C [2] was 89.6%, the viability, T/C [3] was 86.9% and the viability, T/C [4] was 16.9%. It also gave a viability, T/C (second compound 0.1 µM, first compound 0.000316 µM) of 83.8%, a viability, T/C (second compound 0.1 µM, first compound 0.001 µM) of 129% and a viability, T/C [5] of 102%. The viability, T/C [6] was 98.4%, the viability, T/C [7] was 99.3% and the viability, T/C [8] was 23.3%. The viability, T/C (second compound 0.316 µM, first compound 0.000316 µM) was 91.8%, the viability, T/C (second compound 0.316 µM, first compound 0.001 µM) was 99% and the viability, T/C [9] was 91.8%. It also gave a viability, T/C [10] of 101%, a viability, T/C [11] of 97.1% and a viability, T/C [12] of 17.1%. The viability, T/C (second compound 1 µM, first compound 0.000316 µM) was 94.6%, the viability, T/C (second compound 1 µM, first compound 0.001 µM) was 88.5% and the viability, T/C [13] was 109%. It also gave a viability, T/C [14] of 114%, a viability, T/C [15] of 83% and a viability, T/C [16] of 23.1%. It also gave a viability, T/C (second compound 3.16 µM, first compound 0.000316 µM) of 92.8%, a viability, T/C (second compound 3.16 µM, first compound 0.001 µM) of 106% and a viability, T/C [17] of 99.4%. The viability, T/C [18] was 117%, the viability, T/C [19] was 102% and the viability, T/C [20] was 21.3%. It also gave a viability, T/C (second compound 10 µM, first compound 0.000316 µM) of 98.7%, a viability, T/C (second compound 10 µM, first compound 0.001 µM) of 93.7% and a viability, T/C [21] of 97%. For the same molecule, the viability, T/C [22] was 100%, the viability, T/C [23] was 95.3% and the viability, T/C [24] was 21.2%.
Work on CCc1c2c(nc3ccc(O)cc13)-c1cc3c(c(=O)n1C2)COC(=O)[C@]3(O)CC + Nc1ccc(C#CCN(C(=O)Cc2ncc(C(F)(F)F)cc2C(F)(F)F)c2ccc(F)cc2)nn1 yielded an IC50 (second compound 0.0316 µM) of 7.28 nM, an IC50 (second compound 0.1 µM) of 6.82 nM and an IC50 (second compound 0.316 µM) of 7.42 nM. The IC50 (second compound 1 µM) was 7.43 nM, the IC50 (second compound 3.16 µM) was 5.79 nM and the IC50 (second compound 10 µM) was 6.31 nM. For the same molecule, the viability, T/C [1] was 96.9%, the viability, T/C [2] was 31.4% and the viability, T/C [3] was 12.5%. For the same molecule, the viability, T/C [4] was 5.91%, the viability, T/C [25] was 4.85% and the viability, T/C [26] was 2.42%. The viability, T/C [5] was 100%, the viability, T/C [6] was 24.3% and the viability, T/C [7] was 10.2%. The viability, T/C [8] was 7.32%, the viability, T/C [27] was 4.65% and the viability, T/C [28] was 2.23%. For the same molecule, the viability, T/C [9] was 96.2%, the viability, T/C [10] was 33.6% and the viability, T/C [11] was 11.4%. For the same molecule, the viability, T/C [12] was 6.7%, the viability, T/C [29] was 4.41% and the viability, T/C [30] was 2.32%. The viability, T/C [13] was 94.7%, the viability, T/C [14] was 34.5% and the viability, T/C [15] was 8.52%. The viability, T/C [16] was 7.09%, the viability, T/C [31] was 4.98% and the viability, T/C [32] was 3.55%. For the same molecule, the viability, T/C [17] was 71.9%, the viability, T/C [18] was 29.9% and the viability, T/C [19] was 12.9%. For the same molecule, the viability, T/C [20] was 7.49%, the viability, T/C [33] was 5.5% and the viability, T/C [34] was 2.82%. For the same molecule, the viability, T/C [21] was 86.3%, the viability, T/C [22] was 24.2% and the viability, T/C [23] was 14.3%. It also gave a viability, T/C [24] of 8.16%, a viability, T/C [35] of 5.98% and a viability, T/C [36] of 2.43%.
Work on Nc1ccn(C2OC(CO)C(O)C2(F)F)c(=O)n1 (stereo not drawn) + Nc1ccc(C#CCN(C(=O)Cc2ncc(C(F)(F)F)cc2C(F)(F)F)c2ccc(F)cc2)nn1 yielded an IC50 (second compound 0.0316 µM) of 61.9 nM, an IC50 (second compound 0.1 µM) of 62.5 nM and an IC50 (second compound 0.316 µM) of 82.3 nM. For the same molecule, the IC50 (second compound 1 µM) was 91.2 nM, the IC50 (second compound 3.16 µM) was 207 nM and the IC50 (second compound 10 µM) was 447 nM. The viability, T/C [3] was 93.6%, the viability, T/C [4] was 18.9% and the viability, T/C [25] was 17.6%. It also gave a viability, T/C [26] of 13.8%, a viability, T/C [37] of 11% and a viability, T/C [38] of 6.83%. The viability, T/C [7] was 99.3%, the viability, T/C [8] was 15.9% and the viability, T/C [27] was 18.2%. The viability, T/C [28] was 14.1%, the viability, T/C [39] was 12.3% and the viability, T/C [40] was 9.34%. The viability, T/C [11] was 148%, the viability, T/C [12] was 29.9% and the viability, T/C [29] was 16%. For the same molecule, the viability, T/C [30] was 18.6%, the viability, T/C [41] was 11.3% and the viability, T/C [42] was 8.21%. For the same molecule, the viability, T/C [15] was 136%, the viability, T/C [16] was 42.2% and the viability, T/C [31] was 16.8%. The viability, T/C [32] was 14.5%, the viability, T/C [43] was 11.3% and the viability, T/C [44] was 10.8%. It also gave a viability, T/C [19] of 118%, a viability, T/C [20] of 103% and a viability, T/C [33] of 19.4%. For the same molecule, the viability, T/C [34] was 16.3%, the viability, T/C [45] was 14.8% and the viability, T/C [46] was 11.8%. It also gave a viability, T/C [23] of 105%, a viability, T/C [24] of 210% and a viability, T/C [35] of 63.6%. The viability, T/C [36] was 23%, the viability, T/C [47] was 18.2% and the viability, T/C [48] was 14.1%.
O=C(c1cc(Cc2n[nH]c(=O)c3ccccc23)ccc1F)N1CCN(C(=O)C2CC2)CC1 + Nc1ccc(C#CCN(C(=O)Cc2ncc(C(F)(F)F)cc2C(F)(F)F)c2ccc(F)cc2)nn1 showed an IC50 (second compound 0.0316 µM) greater than 10000 nM, an IC50 (second compound 0.1 µM) greater than 10000 nM and an IC50 (second compound 0.316 µM) greater than 10000 nM. The IC50 (second compound 1 µM) was greater than 10000 nM, the IC50 (second compound 3.16 µM) was greater than 10000 nM and the IC50 (second compound 10 µM) was greater than 10000 nM. For the same molecule, the viability, T/C [3] was 97.5%, the viability, T/C [4] was 126% and the viability, T/C [25] was 104%. The viability, T/C [26] was 98%, the viability, T/C [37] was 94% and the viability, T/C [38] was 150%. For the same molecule, the viability, T/C [7] was 95%, the viability, T/C [8] was 132% and the viability, T/C [27] was 113%. For the same molecule, the viability, T/C [28] was 90.8%, the viability, T/C [39] was 125% and the viability, T/C [40] was 119%. For the same molecule, the viability, T/C [11] was 91.6%, the viability, T/C [12] was 128% and the viability, T/C [29] was 96.9%. It also gave a viability, T/C [30] of 98.8%, a viability, T/C [41] of 129% and a viability, T/C [42] of 162%. The viability, T/C [15] was 98.7%, the viability, T/C [16] was 113% and the viability, T/C [31] was 105%. It also gave a viability, T/C [32] of 109%, a viability, T/C [43] of 121% and a viability, T/C [44] of 163%. For the same molecule, the viability, T/C [19] was 97.6%, the viability, T/C [20] was 114% and the viability, T/C [33] was 100%. It also gave a viability, T/C [34] of 107%, a viability, T/C [45] of 105% and a viability, T/C [46] of 134%. For the same molecule, the viability, T/C [23] was 99.4%, the viability, T/C [24] was 102% and the viability, T/C [35] was 123%. For the same molecule, the viability, T/C [36] was 99.6%, the viability, T/C [47] was 113% and the viability, T/C [48] was 109%.
